Patent publication US9023789B2, “Amylin analogs and pharmaceutical compositions thereof” (Novo Nordisk A/S, priority 2012, dated 2015)
Like-named read-outs stand apart in the source and are kept apart here. Numbered stars: 1 amine (or outer) side, 2 acyl side, 3 side chain; on linkers, the order of the positions; unused ones are H or OH. Bridge positions count the residues as written; N and C are the ends. Side chains are listed from the residue outwards. Peptide text beside a SMILES is read from it. * marks the point of attachment. C20 diacid = O=C(O)CCCCCCCCCCCCCCCCCCC(=O)*; γGlu = O=C(O)[C@H](CCC(=O)[*:2])N[*:1]

Assays:
[1] = biological target: T1, human amylin 3(a) receptor (human calcitonin receptor + RAMP-3) in BHK570 cells (Homo sapiens, UniProt O60896+P30988); assay: ASSAY (II)a functional assay, human amylin receptor (CRE luciferase); type: cell-based
T1 construct: expressed in transfected cells
Summary of the method: (§1)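 Readout is luminescence from a cAMP-responsive CRE-luc reporter, developed with LucLite for 30 min at room temperature. Cells were treated for 3 h at 37 °C in 10% FBS/DMEM buffered with 10 mM Hepes (pH 7.4).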

[2] = biological target: T2, human calcitonin (a) receptor in BHK570 cells (Homo sapiens, UniProt P30988); assay: ASSAY (II)a functional assay, human calcitonin receptor (CRE luciferase); type: cell-based
T2 construct: expressed in transfected cells
T2 sequence (P30988 25-474): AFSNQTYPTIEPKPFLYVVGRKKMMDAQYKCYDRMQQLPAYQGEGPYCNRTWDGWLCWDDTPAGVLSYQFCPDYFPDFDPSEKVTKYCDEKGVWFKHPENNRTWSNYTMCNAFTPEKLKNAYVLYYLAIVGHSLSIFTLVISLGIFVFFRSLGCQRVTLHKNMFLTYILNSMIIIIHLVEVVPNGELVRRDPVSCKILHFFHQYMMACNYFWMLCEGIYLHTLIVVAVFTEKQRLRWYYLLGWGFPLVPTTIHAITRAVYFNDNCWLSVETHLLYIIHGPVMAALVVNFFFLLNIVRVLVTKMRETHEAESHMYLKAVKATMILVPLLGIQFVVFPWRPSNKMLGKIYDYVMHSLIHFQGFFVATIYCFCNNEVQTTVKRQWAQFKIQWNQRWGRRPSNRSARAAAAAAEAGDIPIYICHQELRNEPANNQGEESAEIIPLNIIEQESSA
Summary of the method: as §1

[3] = ASSAY (III) ThT fibrillation assay for physical stability; type: physicochemical
Summary of the method: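 Physical stability scored by ThT fluorescence (444 nm excitation, 485 nm emission) tracked every 20 min during 37 °C incubation with 960 rpm shaking, ThT at 1 μM final. Values are replicate means with SD at chosen times; HPLC against pramlintide standard gives initial and post-assay soluble concentrations.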

[4] = biological target: T3, human calcitonin receptor (Homo sapiens, UniProt P30988); assay: ASSAY (VII) binding to the human calcitonin receptor (SPA, 125I-Calcitonin);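 also: cell membranes (35 ng/µL) combined with SPA beads in 40 µL of pH 7.4 Hepes buffer, 384-well format, signal counted on a TopCounter instrument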
T3 construct: expressed in transfected cells
T3 sequence (P30988 25-474): T2 sequence (P30988 25-474)

[5] = hCTR funct. EC50 / hAmylin-R funct. EC50
[6] = hCTR funct. EC50 over hAmylin-R funct. EC50
[7] = human amylin receptor functional potency, assay (II), read-out: hAmylin-R funct. EC50
[8] = human functional selectivity: hCTR funct. EC50 / hAmylin-R funct. EC50
[9] = hCTR funct. EC50 divided by hAmylin-R funct. EC50

T1 sequence (O60896 24-148, one chain of several): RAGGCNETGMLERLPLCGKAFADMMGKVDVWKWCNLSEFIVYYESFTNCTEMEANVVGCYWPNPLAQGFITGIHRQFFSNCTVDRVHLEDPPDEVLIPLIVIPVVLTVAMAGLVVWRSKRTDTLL

In the case of CC[C@H](C)[C@H](NC(=O)[C@H](C)NC(=O)CNC(=O)[C@H](Cc1ccccc1)NC(=O)[C@H](CC(N)=O)NC(=O)[C@@H]1CCCN1C(=O)[C@H](CO)NC(=O)[C@H](CO)NC(=O)[C@H](Cc1c[nH]cn1)NC(=O)[C@H](CCCNC(=N)N)NC(=O)[C@H](CC(C)C)NC(=O)[C@H](Cc1ccccc1)NC(=O)[C@H](CCC(=O)O)NC(=O)[C@H](C)NC(=O)[C@H](CC(C)C)NC(=O)[C@H](CCCNC(=N)N)NC(=O)[C@H](CCC(N)=O)NC(=O)[C@@H](NC(=O)[C@H](C)NC(=O)[C@@H]1CSSC[C@H](NC(=O)[C@H](CCCCN)NC(=O)CC[C@H](NC(=O)CCCCCCCCCCCCCCCCCCC(=O)O)C(=O)O)C(=O)N[C@@H](CC(N)=O)C(=O)N[C@@H]([C@@H](C)O)C(=O)N[C@@H](C)C(=O)N[C@@H]([C@@H](C)O)C(=O)N1)[C@@H](C)O)C(=O)N[C@@H](CC(C)C)C(=O)N1CCC[C@H]1C(=O)N[C@@H](CO)C(=O)N[C@H](C(=O)N[C@@H](CC(N)=O)C(=O)N[C@H](C(=O)NCC(=O)N[C@@H](CO)C(=O)N[C@@H](CCC(=O)O)C(=O)N[C@H](C(=O)N[C@@H](Cc1ccc(O)cc1)C(N)=O)[C@@H](C)O)C(C)C)[C@@H](C)O [Example 33] ({C20 diacid-γGlu}-KCNTATCATQRLAEFLRHSSPNFGAILPSTNVGSETY-NH2; disulfide 2-7), the “Ratio hCT/hAmylin funct.” value [1, 5] is reported as 2.2, the “Ratio hCT/hAmylin funct.” value [1, 6] is reported as 2.2 and the EC50 [1, 7] is reported as 0.243 nM. For the same molecule, the “Ratio hCT/hAmylin funct.” value [1, 8] was 2.2, the EC50 ([2]; read-out: hCTR funct. EC50) was 0.528 nM and the “ThT pH 4.0 lag time (h)” value [3] was 9 h. The IC50 ([4]; read-out: hCTR bind IC50) was 3.61 nM.

For CC[C@H](C)[C@H](NC(=O)[C@H](C)NC(=O)CNC(=O)[C@H](Cc1ccccc1)NC(=O)[C@H](CC(N)=O)NC(=O)[C@@H]1CCCN1C(=O)[C@H](CO)NC(=O)[C@H](CO)NC(=O)[C@H](Cc1c[nH]cn1)NC(=O)[C@H](CCCNC(=N)N)NC(=O)[C@H](CC(C)C)NC(=O)[C@H](Cc1ccccc1)NC(=O)[C@H](C)NC(=O)[C@H](C)NC(=O)[C@H](CC(C)C)NC(=O)[C@H](CCCNC(=N)N)NC(=O)[C@H](CCC(N)=O)NC(=O)[C@@H](NC(=O)[C@H](C)NC(=O)[C@@H]1CSSC[C@H](NC(=O)[C@H](CCCNC(=N)N)NC(=O)CNC(=O)CC[C@H](NC(=O)CCCCCCCCCCCCCCCCCCC(=O)O)C(=O)O)C(=O)N[C@@H](CC(N)=O)C(=O)N[C@@H]([C@@H](C)O)C(=O)N[C@@H](C)C(=O)N[C@@H]([C@@H](C)O)C(=O)N1)[C@@H](C)O)C(=O)N1CCC[C@H]1C(=O)N[C@@H](CO)C(=O)N[C@@H](CO)C(=O)N[C@H](C(=O)N[C@@H](CC(N)=O)C(=O)N[C@H](C(=O)NCC(=O)N1CCC[C@H]1C(=O)N[C@@H](CC(N)=O)C(=O)N[C@H](C(=O)N[C@@H](Cc1ccc(O)cc1)C(N)=O)[C@@H](C)O)C(C)C)[C@@H](C)O [Example 103] ({C20 diacid-γGlu}-GRCNTATCATQRLAAFLRHSSPNFGAIPSSTNVGPNTY-NH2; disulfide 3-8), the EC50 [1] was 0.07 nM, the “Ratio hCT/hAmylin funct.” value [1, 5] was 2.1 and the “Ratio hCT/hAmylin funct.” value [1, 9] was 2.1. The “Ratio hCT/hAmylin funct.” value [1, 6] was 2.1, the “Ratio hCT/hAmylin funct.” value [1, 8] was 2.1 and the EC50 [2] was 0.148 nM. The “ThT pH 4.0 lag time (h)” value [3] was 45 h and the IC50 [4] was 3 nM.

For CC[C@H](C)[C@H](NC(=O)[C@H](C)NC(=O)CNC(=O)[C@H](Cc1ccccc1)NC(=O)[C@H](CC(N)=O)NC(=O)[C@@H]1CCCN1C(=O)[C@H](CO)NC(=O)[C@H](CO)NC(=O)[C@H](Cc1c[nH]cn1)NC(=O)[C@H](CCCNC(=N)N)NC(=O)[C@H](CC(C)C)NC(=O)[C@H](Cc1ccccc1)NC(=O)[C@H](CCC(=O)O)NC(=O)[C@H](C)NC(=O)[C@H](CC(C)C)NC(=O)[C@H](CCCNC(=N)N)NC(=O)[C@H](CCC(N)=O)NC(=O)[C@@H](NC(=O)[C@H](C)NC(=O)[C@@H]1CSSC[C@H](NC(=O)[C@@H](N)CCCCNC(=O)CC[C@H](NC(=O)CCCCCCCCCCCCCCCCCCC(=O)O)C(=O)O)C(=O)N[C@@H](CC(N)=O)C(=O)N[C@@H]([C@@H](C)O)C(=O)N[C@@H](C)C(=O)N[C@@H]([C@@H](C)O)C(=O)N1)[C@@H](C)O)C(=O)N1CCC[C@H]1C(=O)N[C@@H](CO)C(=O)N[C@@H](CO)C(=O)N[C@H](C(=O)N[C@@H](CC(N)=O)C(=O)N[C@H](C(=O)NCC(=O)N[C@@H](CCCNC(=N)N)C(=O)N[C@@H](CCC(=O)O)C(=O)N[C@H](C(=O)N[C@@H](Cc1ccc(O)cc1)C(N)=O)[C@@H](C)O)C(C)C)[C@@H](C)O [Example 108] (H-K([γGlu-C20 diacid])CNTATCATQRLAEFLRHSSPNFGAIPSSTNVGRETY-NH2; disulfide 2-7; N-terminus assumed), the “Ratio hCT/hAmylin funct.” value [1, 9] was 6.5, the “Ratio hCT/hAmylin funct.” value [1, 6] was 6.5 and the EC50 [1, 7] was 0.421 nM. For the same molecule, the “Ratio hCT/hAmylin funct.” value [1, 8] was 6.5, the EC50 ([2]; read-out: hCTR funct. EC50) was 2.75 nM and the “ThT pH 4.0 lag time (h)” value [3] was 45 h. For the same molecule, the IC50 ([4]; read-out: hCTR bind IC50) was 6.62 nM.

With CC[C@H](C)[C@H](NC(=O)[C@H](C)NC(=O)CNC(=O)[C@H](Cc1ccccc1)NC(=O)[C@H](CC(N)=O)NC(=O)[C@@H]1CCCN1C(=O)[C@H](CO)NC(=O)[C@H](CO)NC(=O)[C@H](Cc1c[nH]cn1)NC(=O)[C@H](CCCNC(=N)N)NC(=O)[C@H](CC(C)C)NC(=O)[C@H](Cc1ccccc1)NC(=O)[C@H](CCC(=O)O)NC(=O)[C@H](C)NC(=O)[C@H](CC(C)C)NC(=O)[C@H](CCCNC(=N)N)NC(=O)[C@H](CCC(N)=O)NC(=O)[C@@H](NC(=O)[C@H](C)NC(=O)[C@@H]1CSSC[C@H](NC(=O)[C@H](CCCCN)NC(=O)CC[C@H](NC(=O)CCCCCCCCCCCCCCCCCCC(=O)O)C(=O)O)C(=O)N[C@@H](CC(N)=O)C(=O)N[C@@H]([C@@H](C)O)C(=O)N[C@@H](C)C(=O)N[C@@H]([C@@H](C)O)C(=O)N1)[C@@H](C)O)C(=O)N1CCC[C@H]1C(=O)N[C@@H](CO)C(=O)N[C@@H](CO)C(=O)N[C@H](C(=O)N[C@@H](CC(N)=O)C(=O)N[C@H](C(=O)NCC(=O)N[C@@H](CO)C(=O)N[C@@H](CC(N)=O)C(=O)N[C@H](C(=O)N1CCC[C@H]1C(N)=O)[C@@H](C)O)C(C)C)[C@@H](C)O [Example 8] ({C20 diacid-γGlu}-KCNTATCATQRLAEFLRHSSPNFGAIPSSTNVGSNTP-NH2; disulfide 2-7) the “Ratio hCT/hAmylin funct.” value [1, 5] was 1.1, the “Ratio hCT/hAmylin funct.” value [1, 9] was 1.1 and the “Ratio hCT/hAmylin funct.” value [1, 6] was 1.1. For the same molecule, the EC50 [1, 7] was 0.082 nM, the “Ratio hCT/hAmylin funct.” value [1, 8] was 1.1 and the EC50 ([2]; read-out: hCTR funct. EC50) was 0.087 nM. For the same molecule, the “ThT pH 4.0 lag time (h)” value [3] was 45 h and the IC50 ([4]; read-out: hCTR bind IC50) was 0.038 nM.

With CC[C@H](C)[C@H](NC(=O)[C@H](C)NC(=O)CNC(=O)[C@H](Cc1ccccc1)NC(=O)[C@H](CC(N)=O)NC(=O)[C@@H]1CCCN1C(=O)[C@H](CO)NC(=O)[C@H](CO)NC(=O)[C@H](Cc1c[nH]cn1)NC(=O)[C@H](CCCNC(=N)N)NC(=O)[C@H](CC(C)C)NC(=O)[C@H](Cc1ccccc1)NC(=O)[C@H](CC(=O)O)NC(=O)[C@H](C)NC(=O)[C@H](CC(C)C)NC(=O)[C@H](CCCNC(=N)N)NC(=O)[C@H](CCC(N)=O)NC(=O)[C@@H](NC(=O)[C@H](C)NC(=O)[C@@H]1CSSC[C@H](NC(=O)[C@@H](N)CCCCNC(=O)CC[C@H](NC(=O)CCCCCCCCCCCCCCCCCCC(=O)O)C(=O)O)C(=O)N[C@@H](CC(N)=O)C(=O)N[C@@H]([C@@H](C)O)C(=O)N[C@@H](C)C(=O)N[C@@H]([C@@H](C)O)C(=O)N1)[C@@H](C)O)C(=O)N1CCC[C@H]1C(=O)N[C@@H](CO)C(=O)N[C@@H](CO)C(=O)N[C@H](C(=O)N[C@@H](CC(N)=O)C(=O)N[C@H](C(=O)NCC(=O)N1CCC[C@H]1C(=O)N[C@@H](CCC(=O)O)C(=O)N[C@H](C(=O)N[C@@H](Cc1ccc(O)cc1)C(N)=O)[C@@H](C)O)C(C)C)[C@@H](C)O [Example 123] (H-K([γGlu-C20 diacid])CNTATCATQRLADFLRHSSPNFGAIPSSTNVGPETY-NH2; disulfide 2-7; N-terminus assumed) the “Ratio hCT/hAmylin funct.” value [1, 5] was 3.9, the “Ratio hCT/hAmylin funct.” value [1, 9] was 3.9 and the “Ratio hCT/hAmylin funct.” value [1, 6] was 3.9. The EC50 [1, 7] was 0.288 nM, the “Ratio hCT/hAmylin funct.” value [1, 8] was 3.9 and the EC50 ([2]; read-out: hCTR funct. EC50) was 1.11 nM. For the same molecule, the “ThT pH 4.0 lag time (h)” value [3] was 30 h and the IC50 ([4]; read-out: hCTR bind IC50) was 3.27 nM.
